# According to US8372991B2, “Trisubstituted thiophenes that modulate intracellular calcium” (Calcimedica, Inc., priority 2008, dated 2013):
# Legend:
# [1] = Fluorescence-based assay of store-operated calcium entry in Orai1/STIM1 stable cells (Table A JR251); assay type: cell-based; details: Homo sapiens, 50% inhibition of Peak-Basal fluorescence signal
# Procedure: A. Fluorescence-Based Assay of Store-Operated Calcium Entry in Orai1/STIM1 Stable Cells.
# Cells stably expressing recombinant human STIM1 and Orai1 were generated by transfecting a human Orai1 expression plasmid (pcDNA3.1-Orai1-cmyc) into HEK-293 cells stably overexpressing human STIM1 (Roos et al. 2005 JCB 169(3): 435-445). Colonies of cells stably expressing both STIM1 and Orai1 proteins were selected and then subcloned by limiting dilution. Cells were cultured at 37° C./6% CO2 in complete medium with 10% FBS and appropriate selection markers.
# (§1) The day prior to performing the assay Orai1/STIM1 stable cells were plated in 50 μL of complete medium at 90-95% confluence in a 384 well plate. Cells were grown at 37° C./6% CO2 overnight. On the day of the assay, 1.5 μM fluo-4-AM (Invitrogen) in complete medium was added to the cells, which were then incubated for 1 hour at RT. Cells were washed once in Ca^2+-free HBSS (Hank's buffered saline solution) and 35 μl of Ca^2+-free HBSS was added to each well. Test compounds were added to wells in a 10 μL Ca^2+-free HBSS solution, prepared at 4.5× the desired final concentration, and incubated for 30 minutes at RT. The initial baseline fluorescence signal was then measured with a FLIPR^384 (Molecular Devices) plate reader. Calcium entry was initiated by adding 5 μl of 10× CaCl2 (10 mM) in HBSS, and changes in cellular fluorescence were measured with the FLIPR^384 plate reader. In each well, the magnitude of the fluorescence signal as a result of calcium entry into the cell was determined by calculating the difference between the peak fluorescence signal measured after calcium addition and the initial baseline fluorescence signal (designated Peak-Basal). IC50 values were typically calculated as the concentration that inhibited 50% of the Peak-Basal signal (Table A).
# [2] = test system: RBL-2H3 cells; test: Fluorescence-based assay of store-operated calcium entry in RBL-2H3 cells; assay type: cell-based; details: Rattus norvegicus, thapsigargin, 50% inhibition of Upslope
# Procedure: B. Fluorescence-Based Assay of Store-Operated Calcium Entry in RBL-2H3 Cells.
# RBL-2H3 cells were obtained from ATCC and maintained in complete medium with 10% FBS at 37° C./6% CO2.
# (§2) The day prior to performing the assay, RBL-2H3 cells are plated in 50 μL of complete medium in a 384 well plate. Cells are grown at 37° C./6% CO2 overnight and grow to 50-60% confluence by the next day. On the assay day, 1.5 μM Fluo-4-AM dye (Invitrogen) in complete medium is added and incubated for 1 hour at RT. Cells are washed twice in Ca^2+-free HBSS buffer and 35 μL Ca^2+-free HBSS buffer is added to each well. 10 μL of a test compound prepared in a Ca^2+-free HBSS solution at 4.5× of the desired concentration is added to a well and incubated for 5 minutes at RT. 10 μL of thapsigargin prepared in a Ca^2+-free HBSS solution at 5.5× of the desired concentration (5.5 uM) is added to each well and incubated for an additional 25 minutes. The initial baseline fluorescence signal is measured with a FLIPR^384 (Molecular Devices) plate reader. 5 μL of 12× calcium in HBSS (12 mM) is added and changes in cellular fluorescence are measured with the FLIPR^384 plate reader. In each well, the change in the fluorescent signal as a function of time due to calcium entry into the cell is determined by calculating the difference between the fluorescent signal measured 7 seconds after calcium addition and the initial baseline fluorescence signal at time zero (t=0). This parameter is designated Upslope. The IC50 value is calculated as the concentration at which 50% of the Upslope is inhibited.
# [3] = biological target: STIM1 and Orai1 in human embryonic kidney 293 cells (HEK293 cells) (Homo sapiens, UniProt Q96D31); details: HEK293 co-expressing STIM1 and Orai1; cited from earlier work
# [4] = test system: Jurkat cells; details: Jurkat cells and colon cancer cells; cited from earlier work
# [5] = test system: JR251 or RBL cells; test: Store-operated calcium entry IC50 in either JR251 or RBL cells; assay type: cell-based
# Procedure: as §1, §2
# STIM1 and Orai1 in human embryonic kidney 293 cells (HEK293 cells), sequence (Q96D31 whole entry): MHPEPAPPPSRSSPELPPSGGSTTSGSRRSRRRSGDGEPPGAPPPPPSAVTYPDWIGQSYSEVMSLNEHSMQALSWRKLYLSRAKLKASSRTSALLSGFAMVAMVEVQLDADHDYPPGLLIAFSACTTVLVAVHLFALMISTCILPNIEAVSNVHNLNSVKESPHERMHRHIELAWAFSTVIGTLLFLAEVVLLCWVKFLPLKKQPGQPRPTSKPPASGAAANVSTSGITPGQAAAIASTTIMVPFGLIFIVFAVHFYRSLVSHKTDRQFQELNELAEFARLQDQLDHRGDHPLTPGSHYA
Structure (SMILES),IC50 [5],also measured
O=C(CCc1cccc(F)c1)Nc1scc(-c2ccc(Cl)nc2)c1C(=O)O [G],–,IC50 [1]: 1 to 10 µM
O=C(Nc1scc(-c2cnc(C(F)(F)F)nc2)c1C(=O)O)c1cc2ccccc2o1 [F],–,IC50 [1]: ≤ 0.5 µM; IC50 [2]: ≤ 0.5 µM
Cc1ccc(-c2csc(NC(=O)c3cc4ccccc4o3)c2C(=O)O)c2ccccc12 [K],–,IC50 [1]: ≤ 0.5 µM; IC50 [2]: 1 to 10 µM
O=C(Nc1scc(-c2ccc(Cl)s2)c1C(=O)O)c1cc2ccccc2o1 [B],–,IC50 [2]: ≤ 0.5 µM
Cc1ccc(-c2csc(NC(=O)c3cc4ccccc4o3)c2C(=O)O)c2cccnc12 [L],–,IC50 [1]: ≤ 0.5 µM; IC50 [2]: ≤ 0.5 µM
NCCOB(c1ccccc1)c1ccccc1 [2-aminoethoxydiphenylborate],–,block of store-dependent Ca2+ entry [3]: completely blocked
Cc1nnsc1C(=O)Nc1ccc(-n2nc(C(F)(F)F)cc2C(F)(F)F)cc1 [BTP-2],–,inhibition of SOCE [4]: inhibits; inhibition of proliferation [4]: inhibits
Cc1nc(N2CCCCC2)ncc1-c1csc(NC(=O)c2ccnnc2)c1C(=O)O [4-(4-methyl-2-(piperidin-1-yl)pyrimidin-5-yl)-2-(pyridazine-4-carboxamido)thiophene-3-carboxylic acid],< 10 µM,–
"Cc1cc(-c2csc(NC(=O)c3cccc(F)c3)c2C(=O)O)n(C)n1 [4-(1,3-dimethyl-1H-pyrazol-5-yl)-2-(3-fluorobenzamido)thiophene-3-carboxylic acid]",< 10 µM,–
Cc1csc(-c2csc(NC(=O)c3cc4ccccc4o3)c2C(=O)O)n1 [2-(benzofuran-2-carboxamido)-4-(4-methylthiazol-2-yl)thiophene-3-carboxylic acid],< 10 µM,–
Cc1csc(-c2csc(NC(=O)c3cccc(F)c3)c2C(=O)O)n1 [C],–,IC50 [2]: 1 to 10 µM
O=C(Nc1scc(-c2cnccn2)c1C(=O)O)c1cccc(F)c1 [2-(3-fluorobenzamido)-4-(pyrazin-2-yl)thiophene-3-carboxylic acid],< 10 µM,–
COc1ccc(-c2csc(NC(=O)c3cccc(F)c3)c2C(=O)O)cn1 [2-(3-fluorobenzamido)-4-(6-methoxypyridin-3-yl)thiophene-3-carboxylic acid],< 10 µM,–
"Cc1nnsc1C(=O)Nc1scc(-c2c(C)nn(-c3ccccc3)c2C)c1C(=O)O [4-(3,5-dimethyl-1-phenyl-1H-pyrazol-4-yl)-2-(4-methyl-1,2,3-thiadiazole-5-carboxamido)thiophene-3-carboxylic acid]",< 10 µM,–
COc1ccc(-c2csc(NC(=O)c3cccc(F)c3)c2C(=O)O)cn1 [D],–,IC50 [2]: 1 to 10 µM
COc1ccc(-c2csc(NC(=O)c3cc4ccccc4o3)c2C(=O)O)cn1 [E],–,IC50 [2]: 1 to 10 µM

Structure (SMILES),IC50 [5],also measured
Cn1ncc(C(=O)Nc2scc(-c3cnn(-c4ccc(Cl)cc4)c3)c2C(=O)O)c1Cl [2-(5-chloro-1-methyl-1H-pyrazole-4-carboxamido)-4-(1-(4-chlorophenyl)-1H-pyrazol-4-yl)thiophene-3-carboxylic acid],< 10 µM,–
COc1ccc(-c2csc(NC(=O)c3cc4ccccc4o3)c2C(=O)O)cn1 [2-(benzofuran-2-carboxamido)-4-(6-methoxypyridin-3-yl)thiophene-3-carboxylic acid],< 10 µM,–
"Cc1nnsc1C(=O)Nc1scc(-c2cnccn2)c1C(=O)O [2-(4-methyl-1,2,3-thiadiazole-5-carboxamido)-4-(pyrazin-2-yl)thiophene-3-carboxylic acid]",< 10 µM,–
Cc1csc(-c2csc(NC(=O)c3cccc(F)c3)c2C(=O)O)n1 [2-(3-fluorobenzamido)-4-(4-methylthiazol-2-yl)thiophene-3-carboxylic acid],< 10 µM,–
O=C(Nc1scc(-c2ccnc(F)c2)c1C(=O)O)c1cc2ccccc2o1 [2-(benzofuran-2-carboxamido)-4-(2-fluoropyridin-4-yl)thiophene-3-carboxylic acid],< 10 µM,–
Cc1ccc(-c2csc(NC(=O)c3cccc(F)c3)c2C(=O)O)s1 [A],–,IC50 [2]: 1 to 10 µM
O=C(Nc1scc(-c2cnn(-c3ccc(Cl)cc3)c2)c1C(=O)O)c1ccnnc1 [4-(1-(4-chlorophenyl)-1H-pyrazol-4-yl)-2-(pyridazine-4-carboxamido)thiophene-3-carboxylic acid],< 10 µM,–
O=C(Nc1scc(-c2ccc3scnc3c2)c1C(=O)O)c1cc2ccccc2o1 [J],–,IC50 [1]: ≤ 0.5 µM; IC50 [2]: ≤ 0.5 µM
Cn1nc(C(F)(F)F)cc1-c1csc(NC(=O)c2cc3ccccc3o2)c1C(=O)O [2-(benzofuran-2-carboxamido)-4-(1-methyl-3-(trifluoromethyl)-1H-pyrazol-5-yl)thiophene-3-carboxylic acid],< 10 µM,–
O=C(Nc1scc(-c2c[nH]c3ccccc23)c1C(=O)O)c1cccc(F)c1 [H],–,IC50 [2]: 1 to 10 µM
O=C(Nc1scc(-c2c[nH]c3ccccc23)c1C(=O)O)c1cccc(F)c1 [2-(3-fluorobenzamido)-4-(1H-indol-3-yl)thiophene-3-carboxylic acid],< 10 µM,–
"Cc1cc(-c2csc(NC(=O)c3snnc3C)c2C(=O)O)n(C)n1 [4-(1,3-dimethyl-1H-pyrazol-5-yl)-2-(4-methyl-1,2,3-thiadiazole-5-carboxamido)thiophene-3-carboxylic acid]",< 10 µM,–
Cc1ccc(-c2csc(NC(=O)c3cc4ccccc4o3)c2C(=O)O)cn1 [2-(benzofuran-2-carboxamido)-4-(6-methylpyridin-3-yl)thiophene-3-carboxylic acid],< 10 µM,–
O=C(Nc1scc(-c2nc3ccccc3n2C(F)F)c1C(=O)O)c1cc2ccccc2o1 [Compound I],–,IC50 [2]: 1 to 10 µM
O=C(Nc1scc(-c2ccc(F)nc2)c1C(=O)O)c1cc2ccccc2o1 [2-(benzofuran-2-carboxamido)-4-(6-fluoropyridin-3-yl)thiophene-3-carboxylic acid],< 10 µM,–
O=C(Nc1scc(-c2ccc3ccccc3c2)c1C(=O)O)c1cc2ccccc2o1 [2-(benzofuran-2-carboxamido)-4-(naphthalen-2-yl)thiophene-3-carboxylic acid],< 10 µM,–

# Continued, in another order:
IC50 [5],Structure (SMILES),also measured
< 10 µM,"COc1ccc(/C=C/C(=O)Nc2scc(-c3cccs3)c2C(=O)O)cc1OC [(E)-5′-(3-(3,4-dimethoxyphenyl)acrylamido)-2,3′-bithiophene-4′-carboxylic acid]",–
< 10 µM,"O=C(Nc1scc(-c2cccs2)c1C(=O)O)c1ccc(F)cc1 [5′-(4-fluorobenzamido)-2,3′-bithiophene-4′-carboxylic acid]",–
< 10 µM,O=C(CCc1cccc(F)c1)Nc1scc(-c2ccc(Cl)nc2)c1C(=O)O [4-(6-chloropyridin-3-yl)-2-(3-(3-fluorophenyl)propanamido)thiophene-3-carboxylic acid],–
< 10 µM,O=C(Nc1scc(-c2cnccn2)c1C(=O)O)c1ccnnc1 [4-(pyrazin-2-yl)-2-(pyridazine-4-carboxamido)thiophene-3-carboxylic acid],–
< 10 µM,"Cc1ccc(-c2csc(NC(=O)c3cccc(F)c3)c2C(=O)O)s1 [5′-(3-fluorobenzamido)-5-methyl-2,3′-bithiophene-4′-carboxylic acid]",–
< 10 µM,O=C(Nc1scc(-c2nc3ccccc3s2)c1C(=O)O)c1cc2ccccc2o1 [4-(benzo[d]thiazol-2-yl)-2-(benzofuran-2-carboxamido)thiophene-3-carboxylic acid],–
